In US4248865A, “Novel aminoglycoside derivatives” (Shionogi & Co., Ltd., priority 1978, dated 1981):
Converted amounts (≈) assume the structure as drawn.

What was measured:
Format in all cases: cell-based
Proteus mirabilis TB-617 = assay: MIC by agar dilution method, Proteus mirabilis TB-617; conditions: TB617, P. mirabilis TB-617 (not marked as resistant), 10^6 CFU/ml, 37° C., 18 to 20 hours, read-out: Minimum Inhibitory Concentration (MIC)
[1] = tested on: Pseudomonas aeruginosa TB-151; assay: MIC by agar dilution method, Pseudomonas aeruginosa TB-151; conditions: TB151, P. aeruginosa TB-151, tobramycin resistant strain, 10^6 CFU/ml, 37° C., 18 to 20 hours, read-out: Minimum Inhibitory Concentration (MIC)
Proteus vulgaris TB-615 = assay: MIC by agar dilution method, Proteus vulgaris TB-615; conditions: TB615, P. vulgaris TB-615, tobramycin resistant strain, 10^6 CFU/ml, 37° C., 18 to 20 hours, read-out: Minimum Inhibitory Concentration (MIC)

SMILES | MIC (Proteus mirabilis TB-617) | MIC [1] | MIC (Proteus vulgaris TB-615)
NC[C@H]1O[C@H](O[C@H]2[C@H](O)[C@@H](O[C@H]3O[C@H](CO)[C@@H](O)[C@H](N)[C@H]3O)[C@H](NC3=NCC[C@@H]3O)C[C@@H]2N)[C@H](N)C[C@@H]1O [[A], 1N-[(S)(-)-3-hydroxy-1-pyrrolin-2-yl]tobramycin] | 3.1 mg/L (≈ 5.63 µM) | 25 mg/L (≈ 45.4 µM) | 25 mg/L (≈ 45.4 µM)
NC[C@H]1O[C@H](O[C@H]2[C@H](O)[C@@H](O[C@H]3O[C@H](CO)[C@@H](O)[C@H](N)[C@H]3O)[C@H](NC3=NCCC[C@@H]3O)C[C@@H]2N)[C@H](N)C[C@@H]1O [[B], 1N-[(S)(-)-3-hydroxy-3,4,5,6-tetrahydropyridin-2-yl]tobramycin] | 3.1 mg/L (≈ 5.49 µM) | 25 mg/L (≈ 44.3 µM) | 25 mg/L (≈ 44.3 µM)
NC[C@H]1O[C@H](O[C@H]2[C@H](O)[C@@H](O[C@H]3O[C@H](CO)[C@@H](O)[C@H](N)[C@H]3O)[C@H](N)C[C@@H]2N)[C@H](N)C[C@@H]1O [TOB, tobramycin, reference compound] | 6.2 mg/L (≈ 13.3 µM) | 50 mg/L (≈ 107 µM) | 50 mg/L (≈ 107 µM)
